Data on 3 compounds can be found in patent US10494332B2, “Protein tyrosine phosphatases or SHP2 inhibitors and uses thereof” (Indiana University Research and Technology Corporation, priority 2015, dated 2019).

Data set [1] deals with M. tuberculosis H37Rv. The data set can be described thus: Microplate Alamar Blue assay (MABA) MIC. The data set is classed as cell-based, Mycobacterium tuberculosis.
Data set [2] deals with M. tuberculosis H37Rv. The data set can be described thus: Chronic TB infection in guinea pigs, adjunctive treatment with HRZ. In kind it is in vivo, guinea pig. The note with it: added to the standard regimen HRZ, after 6 weeks of treatment.
Data set [3] in a line: Pharmacokinetics and bioavailability in guinea pigs. The data set is classed as in vivo, guinea pig. How it is done: All drugs were suspended in 1% DMSO, 0.5% DEA, 48.5% PEG 400, and 50% water. Blood was collected for analysis of these drugs in plasma pre-dose and at 1, 4, 8, 24, and 48 h post-dose. Plasma was separated and stored at −70° C. until analysis. Plasma drug concentrations were determined by liquid chromatography-mass spectrometry and liquid chromatography-tandem mass spectrometry over the concentration range of 0.005-1 mg/L with dilution to 10 mg/L. Pharmacokinetic variables were calculated from individual drug concentration-time data using non-compartmental methods as implemented in WinNonlin version 5.0 (Pharsight, Mountain View, Calif.) as described earlier.

In data set [4] the test system is mPTPB transfected Raw264.7 cells. In words: IFN-γ induced Erk1/2 phosphorylation in transfected Raw264.7 macrophages. The data set is classed as cell-based, mouse. How it is done: Raw264.7 mouse macrophages were cultured in Dulbecco's modified Eagle's medium (DMEM) supplemented with 10% FBS (Invitrogen), penicillin (50 units/mL), and streptomycin (50 μg/mL) under a humidified atmosphere containing 5% CO2 at 37° C. Transfected Raw264.7 cells (Vector, WT-mPTPB) were seeded in a 12-well plate at a density of 4×10^4 cells/well. The following day cells were treated with mPTPB inhibitor 11a for 1 hour, then stimulated with IFN-γ (200 U/ml) for 1 hour. Subsequently, the cells were washed with ice-cold phosphate buffered saline, and lysed with lysis buffer on ice for 30 minutes. Cell lysate was then cleared by centrifuging at 13,000 rpm for 15 minutes. The phosphorylation of ERK1/2 was detected by Western blotting.

Data set [5] has as its system insulin signaling pathway in HepG2 cells (LMWPTP). In words: Insulin signaling in HepG2 cells. The data set is classed as cell-based. To be noted: HepG2, 1 hour pretreatment, 5 nM insulin for 5 minutes. The procedure:
To assess the effects of L335N15 in insulin signaling pathway, HepG2 cells were pretreated with L335N15 for 1 hour and were subsequently stimulated with 5 nM insulin for 5 minutes. […] Consistent with IR activation, downstream Akt phosphorylation (Ser473) was increased. […] Accordingly, LMWPTP inhibitors such as L335N15 described herein can be used to develop agents for the treatment of type 2 diabetes and insulin resistance.

Usually MIC stands for the lowest concentration found to suppress growth. Broadly, the Tmax is the time at which the peak concentration occurs. Regarding `Cc1c(Br)cc(NC(=O)CS(=O)(=O)O)cc1Br`, the “Activity in standard MIC assay” value in the data set with M. tuberculosis H37Rv [1] is listed as “devoid of activity”. For the same compound, the MIC with M. tuberculosis H37Rv [1] (Mycobacterium tuberculosis, H37RV, minimum inhibitory concentration, read-out: In vitro anti-Mtb activity MABA-MIC H37Rv) is > 10 µM. Moreover, the “Further reduction of mean lung CFU relative to HRZ” value with M. tuberculosis H37Rv [2] worked out at 0.14 log10. Also, the “Time plasma concentration 10-fold in excess of biochemical IC50” value in data set [3] (guinea pig, in vivo, po) was 12-14 hours. Besides, the Tmax in data set [3] (guinea pig, plasma, po) was determined as 2.5 h. Moreover, the “Oral bioavailability and half-life in guinea pigs” value in data set [3] (oral) is “good oral bioavailability and half-life”.

On to `O=C(C(c1ccccc1)S(=O)(=O)O)N1CCCC2CCCCC21` (stereo not shown) [Compound L319N53], for which the “Erk1/2 phosphorylation in mPTPB transfected Raw264.7 cells” value in data set [4] (8 nM, 16 nM, and 32 nM) is recorded as “increased Erk1/2 phosphorylation”. In data set [4] (vector Raw264.7 cells), the “Erk1/2 phosphorylation in vector cells” value is “no effect”.

`O=C(CS(=O)(=O)O)Nc1nc2ccccc2s1` [Compound L335N15]: the “Akt phosphorylation (Ser473)” value in data set [5] is given as “increased”. In addition, in data set [5] (relative to DMSO), the “IR Tyr1162/1163 phosphorylation” value is “enhanced IR Tyr1162/1163 phosphorylation in a dose-dependent fashion”.
